We go through 23 compounds from patent publication US9216999B2, “Substituted pyrrolo[2,3-h][1,6]naphthyridines and compositions thereof as JAK inhibitors” (priority 2011, dated 2015).

The structures appear in SMILES notation.

Format in all cases: biochemical
Holding throughout (conditions): ATP 100 μM

For one assay, the target named is JAK3 (Homo sapiens (Human), UniProt P52333). The experiment in a line: Enzyme assay (Assay Example^a 1), JAK3.
A further assay deals with JAK1 (Homo sapiens (Human), UniProt P23458). The assay is described as follows: Enzyme assay (Assay Example^a 1), JAK1.
The target of another assay is Tyk2 (Homo sapiens (Human), UniProt P29597). The assay is described as follows: Enzyme assay (Assay Example^a 1), Tyk2.
Chain of Tyk2 (P29597 whole entry): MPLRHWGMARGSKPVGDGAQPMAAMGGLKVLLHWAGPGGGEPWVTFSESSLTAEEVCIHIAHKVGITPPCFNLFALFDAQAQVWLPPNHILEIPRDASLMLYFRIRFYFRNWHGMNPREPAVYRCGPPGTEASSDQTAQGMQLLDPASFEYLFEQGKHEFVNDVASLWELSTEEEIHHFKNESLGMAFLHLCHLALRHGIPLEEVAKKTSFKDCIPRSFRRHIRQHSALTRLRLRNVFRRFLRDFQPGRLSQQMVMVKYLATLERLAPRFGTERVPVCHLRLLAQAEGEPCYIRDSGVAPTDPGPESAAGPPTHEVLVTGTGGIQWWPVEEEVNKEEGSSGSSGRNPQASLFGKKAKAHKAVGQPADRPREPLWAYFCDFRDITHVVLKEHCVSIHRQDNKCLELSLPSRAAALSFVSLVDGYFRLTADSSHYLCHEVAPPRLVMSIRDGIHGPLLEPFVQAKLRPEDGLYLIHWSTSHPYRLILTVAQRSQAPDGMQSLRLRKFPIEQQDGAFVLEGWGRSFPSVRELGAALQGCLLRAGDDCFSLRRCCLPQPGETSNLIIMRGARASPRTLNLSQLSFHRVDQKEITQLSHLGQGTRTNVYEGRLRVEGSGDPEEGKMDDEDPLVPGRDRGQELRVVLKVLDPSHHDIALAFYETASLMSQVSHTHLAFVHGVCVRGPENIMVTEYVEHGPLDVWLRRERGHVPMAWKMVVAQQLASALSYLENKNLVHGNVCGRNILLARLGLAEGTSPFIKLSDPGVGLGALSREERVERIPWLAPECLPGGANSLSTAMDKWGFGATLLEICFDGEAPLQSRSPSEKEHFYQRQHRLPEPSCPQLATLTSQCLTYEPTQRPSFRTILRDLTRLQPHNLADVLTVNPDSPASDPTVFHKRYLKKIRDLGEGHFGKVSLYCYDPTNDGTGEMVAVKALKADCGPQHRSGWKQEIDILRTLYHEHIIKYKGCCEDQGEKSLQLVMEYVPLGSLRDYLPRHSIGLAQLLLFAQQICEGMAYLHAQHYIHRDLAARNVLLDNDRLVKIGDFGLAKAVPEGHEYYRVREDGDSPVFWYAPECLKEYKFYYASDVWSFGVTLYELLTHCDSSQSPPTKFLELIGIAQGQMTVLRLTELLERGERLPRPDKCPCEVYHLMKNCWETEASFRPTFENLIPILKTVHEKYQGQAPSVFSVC
The target in the next assay is JAK2 (Homo sapiens (Human), UniProt O60674). The assay is described as follows: Enzyme assay (Assay Example^a 1), JAK2.

Chain of JAK3 (P52333 whole entry): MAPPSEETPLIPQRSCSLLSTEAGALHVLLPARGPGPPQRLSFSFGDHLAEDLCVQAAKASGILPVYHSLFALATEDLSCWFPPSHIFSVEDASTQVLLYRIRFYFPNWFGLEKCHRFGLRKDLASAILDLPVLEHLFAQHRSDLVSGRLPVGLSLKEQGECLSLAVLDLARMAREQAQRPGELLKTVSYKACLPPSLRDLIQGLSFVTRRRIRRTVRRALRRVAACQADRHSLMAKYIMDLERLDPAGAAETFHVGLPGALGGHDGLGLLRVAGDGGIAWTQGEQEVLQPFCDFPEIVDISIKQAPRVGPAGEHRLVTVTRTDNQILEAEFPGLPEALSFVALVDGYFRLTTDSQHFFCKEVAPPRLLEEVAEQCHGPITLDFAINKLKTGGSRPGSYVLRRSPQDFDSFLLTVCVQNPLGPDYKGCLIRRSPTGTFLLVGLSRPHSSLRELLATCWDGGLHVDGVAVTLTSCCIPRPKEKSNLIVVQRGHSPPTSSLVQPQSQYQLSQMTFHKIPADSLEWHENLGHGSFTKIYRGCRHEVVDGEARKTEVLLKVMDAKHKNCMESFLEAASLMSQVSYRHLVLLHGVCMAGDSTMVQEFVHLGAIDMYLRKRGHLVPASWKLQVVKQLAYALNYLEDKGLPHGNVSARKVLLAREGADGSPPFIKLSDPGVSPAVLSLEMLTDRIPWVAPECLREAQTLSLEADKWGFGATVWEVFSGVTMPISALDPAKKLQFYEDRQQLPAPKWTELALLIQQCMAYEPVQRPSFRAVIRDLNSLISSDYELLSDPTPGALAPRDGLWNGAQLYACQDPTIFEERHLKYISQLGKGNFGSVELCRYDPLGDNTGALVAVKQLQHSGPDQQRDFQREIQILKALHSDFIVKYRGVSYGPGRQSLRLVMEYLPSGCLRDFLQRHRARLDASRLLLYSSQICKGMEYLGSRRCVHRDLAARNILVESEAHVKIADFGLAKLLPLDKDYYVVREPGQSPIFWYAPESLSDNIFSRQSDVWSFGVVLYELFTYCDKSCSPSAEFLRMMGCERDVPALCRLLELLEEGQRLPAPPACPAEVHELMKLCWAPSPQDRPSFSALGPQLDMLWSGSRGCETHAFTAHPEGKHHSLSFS

Take `N#CCC(=O)NC[C@H]1CC[C@H](c2nnn3cnc4[nH]ccc4c23)CC1` [compound 372, N-{[trans-4-(7H-Pyrrolo[3,2-e][1,2,3]triazolo[1,5-c]pyrimidin-1-yl)cyclohexyl]methyl}-2-cyanoacetamide]: the IC50 – broadly, the concentration that gives 50% inhibition – against JAK3 is 0.23 µM; on JAK1 it was 0.0041 µM; against Tyk2, 0.41 µM; at JAK2, 0.016 µM.

`O=C(CC(F)(F)F)NC[C@H]1CC[C@H](c2nnn3cnc4[nH]ccc4c23)CC1` [compound 373, N-{[trans-4-(7H-Pyrrolo[3,2-e][1,2,3]triazolo[1,5-c]pyrimidin-1-yl)cyclohexyl]methyl}-3,3,3-trifluoropropanamide]: the half-maximal inhibitory concentration (IC50) against JAK3 was 0.035 µM; against JAK1, 0.0015 µM; against Tyk2, 0.53 µM; against JAK2, 0.011 µM.

Take `Cc1c(CN2CCC(c3nnn4cnc5[nH]ccc5c34)CC2)c(Cl)nn1CC(F)(F)F` [compound 374, 1-{1-[(3-Chloro-5-methyl-1-(2,2,2-trifluoroethyl)-1H-pyrazol-4-yl)methyl]piperidin-4-yl}-7H-pyrrolo[3,2-e][1,2,3]triazolo[1,5-c]pyrimidine]: the 50% inhibitory concentration (IC50) is above 1 µM against JAK3, 0.038 µM at JAK1, above 1 µM against Tyk2 and 0.18 µM at JAK2.

In the case of `N#Cc1ccc(N2CCC(c3nnn4cnc5[nH]ccc5c34)CC2)cc1` [compound 376, 4-[4-(7H-Pyrrolo[3,2-e][1,2,3]triazolo[1,5-c]pyrimidin-1-yl)piperidin-1-yl]benzonitrile], the IC50 at JAK3 was above 1 µM; against JAK1 it was 0.019 µM; on Tyk2, above 1 µM; at JAK2 it was 0.19 µM.

Take `N#Cc1ccc(CN2CCC(c3nnn4cnc5[nH]cc(Cl)c5c34)CC2)cc1` [compound 377, 4-{[4-(9-Chloro-7H-pyrrolo[3,2-e][1,2,3]triazolo[1,5-c]pyrimidin-1-yl)piperidin-1-yl]methyl}benzonitrile]: the IC50 at JAK3 is 0.054 µM; against JAK1, 0.0045 µM; against Tyk2 it was above 1 µM; on JAK2 it was 0.017 µM.

Consider `N#CCCN(CCC#N)C1CCC(c2nnn3cnc4[nH]ccc4c23)CC1` (centres unmarked) [compound 380, 3,3′-{[4-(7H-pyrrolo[3,2-e][1,2,3]triazolo[1,5-c]pyrimidin-1-yl)cyclohexyl]azanediyl}dipropanenitrile], for which the IC50 at JAK3 amounted to 0.2 µM; on JAK1 it was 0.002 µM; against Tyk2, 0.028 µM; at JAK2 it was 0.0025 µM.

Consider `OC1CN(C[C@H]2CC[C@@H](c3nnn4cnc5[nH]ccc5c34)CC2)C1` [compound 403, 1-{[cis-4-(7H-Pyrrolo[3,2-e][1,2,3]triazolo[1,5-c]pyrimidin-1-yl)cyclohexyl]methyl}azetidin-3-ol], for which the IC50 against JAK3 worked out at 0.44 µM; against JAK1, 0.04 µM; on Tyk2, 0.81 µM; against JAK2, 0.3 µM.

For `c1cc2c(ncn3nnc([C@H]4CC[C@@H](CNC5CC5)CC4)c23)[nH]1` [compound 406, N-{[cis-4-(7H-pyrrolo[3,2-e][1,2,3]triazolo[1,5-c]pyrimidin-1-yl)cyclohexyl]methyl}cyclopropanamine], the half-maximal inhibitory concentration (IC50) is above 1 µM against JAK3, 0.083 µM at JAK1, 0.94 µM on Tyk2 and 0.56 µM against JAK2.

Take `N#CCC(=O)N(CC(F)(F)F)C[C@H]1CC[C@H](c2nnn3cnc4[nH]ccc4c23)CC1` [compound 407, N-{[trans-4-(7H-Pyrrolo[3,2-e][1,2,3]triazolo[1,5-c]pyrimidin-1-yl)cyclohexyl]methyl}-2-cyano-N-(2,2,2-trifluoroethyl)acetamide]: the 50% inhibitory concentration (IC50) was 0.31 µM at JAK3, 0.0034 µM at JAK1, 0.13 µM against Tyk2 and 0.0073 µM on JAK2.

Take `N#CCC(=O)N(CC#N)C[C@H]1CC[C@H](c2nnn3cnc4[nH]ccc4c23)CC1` [compound 408, N-{[trans-4-(7H-pyrrolo[3,2-e][1,2,3]triazolo[1,5-c]pyrimidin-1-yl)cyclohexyl]methyl}-2-cyano-N-(cyanomethyl)acetamide]: the IC50 against JAK3 came to 0.22 µM; on JAK1, 0.0052 µM; against Tyk2, 0.31 µM; at JAK2 it was 0.013 µM.

For `N#CCC(=O)N(C[C@H]1CC[C@H](c2nnn3cnc4[nH]ccc4c23)CC1)C1CC1` [compound 409, N-{[trans-4-(7H-pyrrolo[3,2-e][1,2,3]triazolo[1,5-c]pyrimidin-1-yl)cyclohexyl]methyl}-2-cyano-N-cyclopropylacetamide], the IC50 at JAK3 was determined as 0.92 µM; on JAK1, 0.019 µM; against Tyk2, 0.84 µM; against JAK2, 0.032 µM.

In the case of `Cc1ccc(CN(C[C@H]2CC[C@H](c3nnn4cnc5[nH]ccc5c34)CC2)C(=O)CC#N)o1` [compound 410, N-{[trans-4-(7H-pyrrolo[3,2-e][1,2,3]triazolo[1,5-c]pyrimidin-1-yl)cyclohexyl]methyl}-2-cyano-N-[(5-methylfuran-2-yl)methyl]acetamide], the IC50 stood at 0.32 µM against JAK3, 0.022 µM on JAK1, 0.58 µM on Tyk2 and 0.04 µM against JAK2.

As for `O=C(CC(F)(F)F)N(CC(F)(F)F)C[C@H]1CC[C@H](c2nnn3cnc4[nH]ccc4c23)CC1` [compound 411, N-{[trans-4-(7H-Pyrrolo[3,2-e][1,2,3]triazolo[1,5-c]pyrimidin-1-yl)cyclohexyl]methyl}-3,3,3-trifluoro-N-(2,2,2-trifluoroethyl)propanamide], the concentration for half-maximal inhibition (IC50) amounted to 0.17 µM on JAK3, 0.0043 µM against JAK1, 0.36 µM against Tyk2 and 0.015 µM against JAK2.

As for `N#CCN(C[C@H]1CC[C@H](c2nnn3cnc4[nH]ccc4c23)CC1)C(=O)CC(F)(F)F` [compound 412, N-{[trans-4-(7H-Pyrrolo[3,2-e][1,2,3]triazolo[1,5-c]pyrimidin-1-yl)cyclohexyl]methyl}-N-(cyanomethyl)-3,3,3-trifluoropropanamide], the 50% inhibitory concentration (IC50) at JAK3 was found to be 0.054 µM; against JAK1, 0.0026 µM; at Tyk2, 0.32 µM; against JAK2, 0.0056 µM.

In the case of `N#CCN(CC1CC1)C[C@H]1CC[C@H](c2nnn3cnc4[nH]ccc4c23)CC1` [compound 414, 2-({[trans-4-(7H-pyrrolo[3,2-e][1,2,3]triazolo[1,5-c]pyrimidin-1-yl)cyclohexyl]methyl}(cyclopropylmethyl)amino)acetonitrile], the IC50 is above 1 µM against JAK3, 0.0095 µM against JAK1, 0.11 µM against Tyk2 and 0.13 µM at JAK2.

Turning to `FC(F)(F)CN(CC1CC1)C[C@H]1CC[C@H](c2nnn3cnc4[nH]ccc4c23)CC1` [compound 415, N-{[trans-4-(7H-pyrrolo[3,2-e][1,2,3]triazolo[1,5-c]pyrimidin-1-yl)cyclohexyl]methyl}-N-(cyclopropylmethyl)-2,2,2-trifluoroethanamine], the half-inhibitory concentration (IC50) is above 1 µM against JAK3, 0.03 µM at JAK1, above 1 µM at Tyk2 and 0.095 µM on JAK2.

As to `O=S(=O)(O)C[C@H]1CC[C@H](c2nnn3cnc4[nH]ccc4c23)CC1` [compound 416, [trans-4-(7H-Pyrrolo[3,2-e][1,2,3]triazolo[1,5-c]pyrimidin-1-yl)cyclohexyl]methanesulfonic acid], the concentration for half-maximal inhibition (IC50) against JAK3 was above 1 µM; on JAK1, 0.029 µM; at Tyk2 it was 0.68 µM; at JAK2 it was 0.047 µM.

Regarding `O=S(=O)(C[C@H]1CC[C@H](c2nnn3cnc4[nH]ccc4c23)CC1)NC1CC1` [compound 417, 1-[trans-4-(7H-Pyrrolo[3,2-e][1,2,3]triazolo[1,5-c]pyrimidin-1-yl)cyclohexyl]-N-cyclopropylmethanesulfonamide], the IC50 on JAK3 amounted to 0.38 µM; against JAK1 it was 0.0078 µM; on Tyk2 it was 0.42 µM; against JAK2, 0.026 µM.

As to `CN(C)S(=O)(=O)C[C@H]1CC[C@H](c2nnn3cnc4[nH]ccc4c23)CC1` [compound 418, 1-[trans-4-(7H-pyrrolo[3,2-e][1,2,3]triazolo[1,5-c]pyrimidin-1-yl)cyclohexyl]-N,N-dimethylmethanesulfonamide], the IC50 at JAK3 was 0.33 µM; at JAK1, 0.0043 µM; on Tyk2, 0.17 µM; at JAK2 it was 0.0084 µM.

As to `N#CCNS(=O)(=O)C[C@H]1CC[C@H](c2nnn3cnc4[nH]ccc4c23)CC1` [compound 419, 1-[trans-4-(7H-pyrrolo[3,2-e][1,2,3]triazolo[1,5-c]pyrimidin-1-yl)cyclohexyl]-N-(cyanomethyl)methanesulfonamide], the IC50 against JAK3 was 0.069 µM; at JAK1 it was 0.0035 µM; at Tyk2, 0.27 µM; against JAK2, 0.0061 µM.

Regarding `O=S(=O)(C[C@H]1CC[C@H](c2nnn3cnc4[nH]ccc4c23)CC1)NCC(F)(F)F` [compound 420, 1-[trans-4-(7H-pyrrolo[3,2-e][1,2,3]triazolo[1,5-c]pyrimidin-1-yl)cyclohexyl]-N-(2,2,2-trifluoroethyl)methanesulfonamide], the IC50 against JAK3 turned out to be 0.41 µM; on JAK1, 0.0057 µM; against Tyk2, 0.3 µM; against JAK2 it was 0.015 µM.

Turning to `FC(F)(F)COC1CN(C[C@H]2CC[C@H](c3nnn4cnc5[nH]ccc5c34)CC2)C1` [compound 421, 1-(trans-4-{[3-(2,2,2-Trifluoroethoxy)azetidin-1-yl]methyl}cyclohexyl)-7H-pyrrolo[3,2-e][1,2,3]triazolo[1,5-c]pyrimidine], the IC50 is above 1 µM against JAK3, 0.01 µM against JAK1, above 1 µM on Tyk2 and 0.17 µM against JAK2.

Take `CC1(O)CN(C[C@H]2CC[C@H](c3nnn4cnc5[nH]ccc5c34)CC2)C1` [compound 422, 1-{[trans-4-(7H-pyrrolo[3,2-e][1,2,3]triazolo[1,5-c]pyrimidin-1-yl)cyclohexyl]methyl}-3-methylazetidin-3-ol]: the IC50 at JAK3 is above 1 µM; at JAK1 it was 0.0028 µM; on Tyk2 it was 0.13 µM; against JAK2, 0.051 µM.
